In patent publication US4582821A, “Inhibition of cyclic nucleotide independent protein kinases” (E. I. Du Pont de Nemours and Company, priority 1983, dated 1986):
Values belong to the molecule of their own block, whether it stands above or below them. Peptide text beside a SMILES is read from it. * marks the point of attachment. Cbz = O=C(OCc1ccccc1)*; CH2Cl = ClC*

Legend:
A-431 cell EGF receptor = target: T1, A-431 cell EGF receptor (Homo sapiens, UniProt P00533); assay: Protein phosphorylation of A-431 cell membrane EGF receptors (intact membranes, EGF present); assay type: biochemical; settings: 600 nmoles/mg protein, intact A-431 membranes
T1 construct: intact A-431 cell membranes were employed, rather than solubilized extracts; endogenous in cells; host or cells: A-431 human epidermoid carcinoma cells (plasma membranes)
T1 sequence (P00533 25-1210): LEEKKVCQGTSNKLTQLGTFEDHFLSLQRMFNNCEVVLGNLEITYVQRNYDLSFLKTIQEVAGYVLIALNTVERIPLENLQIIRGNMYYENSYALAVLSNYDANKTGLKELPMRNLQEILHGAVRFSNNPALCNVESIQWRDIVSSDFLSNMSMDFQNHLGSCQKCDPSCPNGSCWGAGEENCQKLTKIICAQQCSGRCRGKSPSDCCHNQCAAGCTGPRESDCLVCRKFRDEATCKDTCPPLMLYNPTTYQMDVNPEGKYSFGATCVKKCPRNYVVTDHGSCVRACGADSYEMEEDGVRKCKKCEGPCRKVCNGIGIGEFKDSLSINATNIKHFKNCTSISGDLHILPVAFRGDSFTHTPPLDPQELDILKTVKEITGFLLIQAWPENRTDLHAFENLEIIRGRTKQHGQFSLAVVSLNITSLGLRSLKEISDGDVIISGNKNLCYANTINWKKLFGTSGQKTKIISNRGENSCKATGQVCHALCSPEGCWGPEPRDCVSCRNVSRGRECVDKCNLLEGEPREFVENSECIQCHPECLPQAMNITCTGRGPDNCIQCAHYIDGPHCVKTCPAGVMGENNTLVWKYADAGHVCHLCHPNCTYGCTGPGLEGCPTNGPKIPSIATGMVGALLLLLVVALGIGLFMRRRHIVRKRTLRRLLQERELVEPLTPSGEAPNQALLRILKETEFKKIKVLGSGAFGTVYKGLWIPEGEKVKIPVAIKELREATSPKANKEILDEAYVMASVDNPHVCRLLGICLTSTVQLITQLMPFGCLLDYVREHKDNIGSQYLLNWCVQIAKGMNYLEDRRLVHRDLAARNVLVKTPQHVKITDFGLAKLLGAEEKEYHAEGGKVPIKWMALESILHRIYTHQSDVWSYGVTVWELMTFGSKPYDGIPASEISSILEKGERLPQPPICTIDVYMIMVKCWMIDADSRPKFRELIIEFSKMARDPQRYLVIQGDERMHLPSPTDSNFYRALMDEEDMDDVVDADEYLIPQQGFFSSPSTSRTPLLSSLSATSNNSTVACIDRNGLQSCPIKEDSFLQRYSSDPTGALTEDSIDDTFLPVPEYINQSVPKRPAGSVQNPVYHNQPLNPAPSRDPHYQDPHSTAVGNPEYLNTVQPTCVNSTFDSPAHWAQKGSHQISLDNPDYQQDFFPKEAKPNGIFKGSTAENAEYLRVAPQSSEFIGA
Description: (§1) Protein phosphorylation assays were conducted substantially as described by Carpenter et al., J. Biol. Chem. 254:4884 (1979). Each assay mixture contained, in a final volume of 70 μL: 20 mM Hepes, pH 7.4, 0.01% bovine serum albumin (BSA), 15-150 μg protein in Triton extract, 100 ng EGF, 1 mM MnCl2 and 10-20 μM [γ-^32 P] ATP (2-4 μCi). Peptide halomethyl ketones were added as solutions in ethanol; an equivalent volume of ethanol was added to controls. Assay mixtures were incubated at about 23° for ten minutes, with or without added EGF. Mixtures were then held at 0° for ten minutes before initiation of phosphorylation by addition of 15 μM γ-^32 P) ATP (2 μCi). Reactions were terminated after 3 minutes at 0° by applying an aliquot of the assay mixture to a Whatman 3MM filter paper (2×2 cm), which was then suspended in ice-cold 10% trichloroacetic acid containing 10 mM pyrophosphate. This suspension was gently shaken for a period of 1 hour, during which the trichloroacetic acid/pyrophosphate mixture was changed three times. Finally, the filter papers were dried and radioactivity measured by scintillation counting.
Assays were conducted substantially as described above, except intact A-431 cell membranes were employed, rather than solubilized extracts, and assay mixtures contained 1 mM ouabain. In these Examples, reactions were permitted to proceed for 6 minutes. This technique is substantially similar to that disclosed by Navarro et al., Biochemistry, 21:6138 (1982).

[1] = tested on: erythroleukemia cell line K-562; assay: Tumor cell line growth inhibition, K-562; assay type: cell-based
Description: (§2) In this series of experiments, the tumor cell growth inhibitory capacity of various peptide halomethyl ketones was tested against lymphoma cell lines YAC-1 and MOLT-4, and against an erythroleukemia cell line, K-562. The lymphoma cell line YAC-1 is described by Kiessling, et al., Eur. J. Immunol. 5:112 (1975), and MOLT-4 is described by Minowada, et al., J. Natl. Cancer Inst. 49:891 (1972) and Nilsson, et al., Int. J. Cancer 15:321 (1975). The erythroleukemia cell line K-562 is described by Lozzio, et al., Leuk. Res. 3:363 (1979). In these experiments, cells were grown on standard media as 10 mL suspension cultures. Initial cell density was 10^5 cells/mL. At day 0, test compounds were introduced in ethanol; control cultures received an equal volume of ethanol. Cells were counted at the times indicated.

[2] = tested on: lymphoma cell line MOLT-4; assay: Tumor cell line growth inhibition, MOLT-4; assay type: cell-based
Description: as §2

lymphoma cell line YAC-1 = assay: Tumor cell line growth inhibition, YAC-1; assay type: cell-based
Description: as §2

p130^fps = target: T2, p130^fps (UniProt P00530+P03323); assay: Casein phosphorylation by p130fps immunoprecipitates; assay type: biochemical, Fujinami sarcoma virus (FSV); settings: casein-phosphorylating activity of p130fps; concentration not given
T2 construct: anti-gag serum and Staphylococcus protein A suspension (for FSV-transformed cells); viral gag-derived N-terminal portion (natural gag-fps fusion); expressed in transfected cells; immune complex with anti-gag serum and Staphylococcus protein A
Description: In a related experiment, the capacity of Boc-LeuCH2 Br to inhibit phosphorylation of casein by p130^fps was determined. These tests were conducted substantially as described above, except 1 mg/mL casein was added to assay mixtures as a substrate, and reactions were terminated by addition of 2.5 mM unlabeled ATP and immediate cooling to 0°. Phosphorylated casein was separated from immunoprecipitate suspensions by centrifugation at 3,000 xg for 3 minutes. The resulting pellets were resuspended in 70 μL of 10 mM Hepes, pH 7.5, and 20 μL aliquots were pipetted onto filter paper squares as previously described. […]

[3] = tested on: A-431 plasma membrane extracts (EGF-mediated protein phosphorylation); assay: Protein phosphorylation in solubilized A-431 plasma membrane extracts, with or without EGF; assay type: biochemical, human; settings: 400 nmol/mg protein
Description: The capacity of certain peptide halomethyl ketones to inhibit protein phosphorylation is illustrated by Examples 1-8, below, in which solubilized plasma membranes prepared from A-431 human epidermoid carcinoma cells were incubated with [γ-^32 P] ATP in the presence of EGF.
A-431 human epidermoid carcinoma cells were grown in Dulbecco's modified Eagle's medium containing 5% fetal calf serum. Plasma membranes were isolated by a method substantially similar to that described by Thom et al., Biochem J. 168:187 (1977), and kept at -70°. Solubilization of plasma membranes was performed substantially as described by Cohen et al., J. Biol. Chem. 255:4834 (1980). In this procedure, 7.5 mg/mL protein was solubilized with 5% Triton X-100 (octylphenol), 10% glycerol, and 20 mM Hepes buffer (N-2-hydroxyethylpiperazine-N^1 -2-ethanesulfonic acid), pH 7.4. This mixture was incubated for 20 minutes at about 23°, followed by centrifugation at 100,000 xg for 60 minutes.
as §1

% inhibition (A-431 cell EGF receptor): 44%
SMILES: CC(C)C[C@H](NC(=O)[C@H](C)NC(=O)[C@H](CO)NC(=O)[C@H](Cc1ccccc1)NC(=O)OCc1ccccc1)C(=O)CCl [Z--Phe-Ser-Ala-LeuCH2 Cl, Z-Phe-Ser-Ala-LeuCH2 Cl] (Cbz-FSAL-CH2Cl)
% Growth Relative to Control Cultures ([1]; 0.4 μg/mL, day 1): 82%
% Growth Relative to Control Cultures ([1]; 0.4 μg/mL, day 2): 66%
% Growth Relative to Control Cultures ([1]; 2.0 μg/mL, day 2): 72%
% Growth Relative to Control Cultures ([1]; 10. μg/mL, day 1): 44%
% Growth Relative to Control Cultures ([1]; 10. μg/mL, day 2): 4%
% Growth Relative to Control Cultures ([1]; 10. μg/mL, day 3): 2%
% Growth Relative to Control Cultures ([1]; 10. μg/mL, day 4): 4%
% Growth Relative to Control Cultures ([1]; 10. μg/mL, day 7): 7%
% Growth Relative to Control Cultures ([2]; 0.4 μg/mL, day 2): 80%
% Growth Relative to Control Cultures ([2]; 2.0 μg/mL, day 2): 85%
% Growth Relative to Control Cultures ([2]; 10. μg/mL, day 1): 64%
% Growth Relative to Control Cultures ([2]; 10. μg/mL, day 2): 16%
% Growth Relative to Control Cultures ([2]; 10. μg/mL, day 3): 4%
% Growth Relative to Control Cultures ([2]; 10. μg/mL, day 4): 2%
% Growth Relative to Control Cultures ([2]; 10. μg/mL, day 7): 11%
% Growth Relative to Control Cultures (lymphoma cell line YAC-1; 0.4 μg/mL, day 1): 58%
% Growth Relative to Control Cultures (lymphoma cell line YAC-1; 0.4 μg/mL, day 2): 49%
% Growth Relative to Control Cultures (lymphoma cell line YAC-1; 2.0 μg/mL, day 1): 53%
% Growth Relative to Control Cultures (lymphoma cell line YAC-1; 2.0 μg/mL, day 2): 53%
% Growth Relative to Control Cultures (lymphoma cell line YAC-1; 2.0 μg/mL, day 7): 76%
% Growth Relative to Control Cultures (lymphoma cell line YAC-1; 10. μg/mL, day 1): 63%
% Growth Relative to Control Cultures (lymphoma cell line YAC-1; 10. μg/mL, day 2): 21%
% Growth Relative to Control Cultures (lymphoma cell line YAC-1; 10. μg/mL, day 3): 16%
% Growth Relative to Control Cultures (lymphoma cell line YAC-1; 10. μg/mL, day 4): 16%
% Growth Relative to Control Cultures (lymphoma cell line YAC-1; 10. μg/mL, day 7): 17%

SMILES: CC(=O)NC(Cc1ccccc1)C(=O)NC(CCC(=O)O)C(=O)NC(C)C(=O)NC(CC(C)C)C(=O)CCl (stereo not drawn) [Ac-Phe-Glu-Ala-LeuCH2 Cl] (Ac-FEAL-CH2Cl; configuration not given here)
Percent Inhibition (p130^fps): -1%

SMILES: CC(C)CC(NC(=O)C(C)NC(=O)C1CCCN1C(=O)C(Cc1ccccc1)NC(=O)OCc1ccccc1)C(=O)CCl (stereo not drawn) [Z--Phe-Pro-Ala-LeuCH2 Cl] (Cbz-FPAL-CH2Cl; configuration not given here)
Percent Inhibition (p130^fps): 16%

SMILES: CC(C)C[C@H](NC(=O)[C@H](C)NC(=O)CNC(=O)[C@H](Cc1ccccc1)NC(=O)OCc1ccccc1)C(=O)CCl [Z--Phe-Gly-Ala-LeuCH2 Cl, Z-Phe-Gly-Ala-LeuCH2 Cl] (Cbz-FGAL-CH2Cl)
Percent Inhibition (p130^fps): 27%

SMILES: CC(C)CC(NC(=O)C(CC(C)C)NC(=O)CNC(=O)C(Cc1ccccc1)NC(=O)OCc1ccccc1)C(=O)CCl (stereo not drawn) [Z--Phe-Gly-Leu-LeuCH2 Cl, Z-Phe-Gly-Leu-LeuCH2 Cl] (Cbz-FGLL-CH2Cl; configuration not given here)
Percent Inhibition (p130^fps): 44%

SMILES: C[C@H](NC(=O)OCc1ccccc1)C(=O)CCl [Z-AlaCH2 Cl]
% inhibition, EGF Added ([3]; EGF added): 71%
EGF Added (pmol 32P incorporated/min/mg protein) ([3]; EGF added, control 20.2): 5.9 pmol^32 P incorporated/min/mg
% inhibition, No EGF Added ([3]; no EGF): 44%
No EGF Added (pmol 32P incorporated/min/mg protein) ([3]; no EGF, control 7.3): 4.1 pmol^32 P incorporated/min/mg

% inhibition (A-431 cell EGF receptor): 67%
SMILES: C[C@H](NC(=O)CNC(=O)[C@H](Cc1ccccc1)NC(=O)OCc1ccccc1)C(=O)N[C@@H](Cc1ccc(O)cc1)C(=O)CCl [Z--Phe-Gly-Ala-TyrCH2 Cl, Z-Phe-Gly-Ala-TyrCH2 Cl] (Cbz-FGAY-CH2Cl)

SMILES: CC(C)CC(NC(=O)C(C)NC(=O)C(CCCCN)NC(=O)C(Cc1ccccc1)NC(=O)OCc1ccccc1)C(=O)CCl (stereo not drawn) [Z--Phe-Lys-Ala-LeuCH2 Cl, Z-Phe-Lys-Ala-LeuCH2 Cl] (Cbz-FKAL-CH2Cl; configuration not given here)
Percent Inhibition (p130^fps): 11%
